Results from patent US8314082B2, “Stilbene derivatives for ADP-ribosyl cyclase inhibitors” (Industrial Cooperation Foundation Chonbuk National …, priority 2006, dated 2012).
Like-named read-outs stand apart in the source and are kept apart here.

Key:
[1] = tested on: Ang II induced [Ca^2+]i increase in murine mesangial cells (MMCs); test: Ang II-mediated [Ca2+]i increase in MMCs; assay type: cell-based; conditions: Mus musculus, Mesangial cell, later sustained Ca2+ signal induced by 150 nM Ang II, 300 s, read-out: IC50([Ca^2+]i, uM) (means ± SEM)
Protocol: Changes in [Ca^2+]i in MMCs were determined as described previously [Kim et al., Exp. Mol. Med. (2006)38:535-45]. Briefly, MMCs cultured on confocal dishes for 48 h at a concentration of 10^4 cells/dish were washed with Hank's balanced salt solution (HBSS) (2 mM CaCl2, 145 mM NaCl, 5 mM KCl, 1 mM MgCl2, 5 mM D-glucose, and 20 mM HEPES, pH 7.3) and then loaded with […] Fluo 3-AM (Molecular Probe, Eugene, Oreg.). Changes in Ca^2+ fluorescence were determined at 488 nm/530 nm (excitation/emission) by air-cooled argon laser system. [Ca^2+]i was calculated using a Kd of 325 nM for Fluo 3-AM by the method of Tsien et al. (1982).

[2] = tested on: Ang II induced cADPR production in murine mesangial cells (MMCs); test: Ang II-induced intracellular cADPR concentration in MMCs; assay type: cell-based; conditions: Mus musculus, Mesangial cell, read-out: IC50([CADPR]i, uM) (means ± SEM)
Protocol: [cADPR]i was measured using a cyclic enzymatic assay as described previously [Graeff et al., Biochem. J. (2002)361:379-84]. Aplysia californica ADPR-cyclase was purified from […] according to the method described [Lee et al., Cell Regul. (1991)2:203-9]. Briefly, MMCs were treated with 0.3 ml of 0.6 M perchloric acid under sonication after Ang II treatment. Precipitates were removed by centrifugation at 20,000×g for 10 min. Perchloric acid was removed by mixing the aqueous sample with a solution containing 3 volumes of 1,1,2-trichlorotrifluoroethane to 1 volume of tri-n-octlyamine. After centrifugation for 10 min at 1500×g, the aqueous layer was collected and neutralized with 20 mM sodium phosphate (pH 8). To remove all contaminating nucleotides, the samples were incubated with the following hydrolytic enzymes overnight at 37° C.: 0.44 unit/ml nucleotide pyrophosphatase, 12.5 units/ml alkaline phosphatase, 0.0625 unit/ml NADase, and 2.5 mM MgCl2 in 20 mM sodium phosphate buffer (pH 8.0). Enzymes were removed by filtration using Centricon-3 filters. To convert cADPR to NAD^+, the samples (0.1 ml/tube) were incubated with […] of a cycling reagent containing 0.3 mg/ml Aplysia ADPR-cyclase, 30 mM nicotinamide, and 100 mM sodium phosphate (pH 8) at room temperature for 30 min. The samples were further incubated with the cycling reagent (0.1 ml) containing 2% ethanol, […] alcohol dehydrogenase, 20 mM resazurin, 10 mg/ml diaphorase, 10 mM riboflavin 5′-phosphate, 10 mM nicotinamide, 0.1 mg/ml BSA, and 100 mM sodium phosphate (pH 8.0) for 2 h at room temperature. An increase in the resorufin fluorescence was measured at 544 nm excitation and 590 nm emission using a fluorescence plate reader (Molecular Devices Corp., Spectra-Max GEMINI). Various known concentrations of cADPR were also included in the cycling reaction to generate a standard curve. […] Production of cADPR as well as later sustained Ca^2+ signal in response to Ang II was inhibited with different efficacy by these small molecules (Table 1). […] The order of IC50 was 4,4′-DAHB>resveratrol>azobenzene=piceatannol>2,2′-DAHB.

STZ diabetic mice = test: Diabetic nephropathy in STZ diabetes mouse model; assay type: in vivo; conditions: 45 μg/kg i.p. once a day for 6 weeks, mean SE, n = 6
Protocol: Male mice, weighing 20 25 g, were made diabetic by a single intravenous injection of STZ (65 mg/kg body weight) in 0.05 M citrate buffer (pH 4.8). At the same day, the control mice were injected with the citrate buffer. After 2 days, induction of diabetes was confirmed by tail blood glucose level measurement by using the LifeScan One Touch glucometer (Johnson & Johnson). The diabetic mice (>16 mM blood glucose) were randomly divided into two groups; 6 mice per group treated with vehicle (0.1% DMSO in saline, 100 μl) or DHAB (45 μg/kg body weight in 0.1% DMSO in saline, 100 μl) and resveratrol (45 μg/kg body weight in 0.1% DMSO in saline, 100 μl) administered by intraperitoneal injection once a day for 6 weeks. The control mice were 6 mice per group treated with the vehicle. On day 39, the mice were detained in individual metabolic cages for 24 h for urine collection. On day 42, the mice were anesthetized with diethyl ether, and blood samples were taken from the abdominal aorta. Bilateral kidneys were rapidly removed and weighed. Urine was gravimetrically collected, and urinary albumin concentrations were determined with an enzyme-linked immunosorbent assay using a murine microalbuminuria kit (Albuwell; Exocell, Philadelphia, Pa.). Urine and serum creatinine levels were measured using the QuantiChrom Creatinine Assay Kit (BioAssay Systems, Hayward, Calif.), following the manufacturer's protocol.

[3] = cADPR production induced by 150 nM Ang II, 90 s, MMCs

IC50 [1] [µM]	IC50 [2, 3] [µM]	Structure (SMILES)	Urine output (STZ diabetic mice; 24 h metabolic cage) [mL/day]	Body Weight (STZ diabetic mice) [g]	Food intake (STZ diabetic mice) [g]	Plasma glucose (STZ diabetic mice) [mg/dL]	Urinary Albumin (STZ diabetic mice) [µg/day]	Water intake (STZ diabetic mice) [mL]	IC50 [2] [µM]
10 ± 1.7	8.9 ± 1.5	Oc1cc(O)cc(/C=C/c2ccc(O)c(O)c2)c1 [Piceatannol, 3,5,3′,4′-tetrahydroxy-trans-stilbene]							
5 ± 0.8	5.5 ± 0.5	Oc1ccc(/C=C/c2cc(O)cc(O)c2)cc1 [Resveratrol, 3,5,4′-trihydroxy-trans-stilbene]	2.55 ± 2.09	22.6 ± 0.70	3.12 ± 0.79	441 ± 48.7	2.97 ± 2.11	5.67 ± 3.21	

Structure (SMILES)	IC50 [1] [µM]	IC50 [2, 3] [µM]	Urine output (STZ diabetic mice; 24 h metabolic cage) [mL/day]	Body Weight (STZ diabetic mice) [g]	Food intake (STZ diabetic mice) [g]	Plasma glucose (STZ diabetic mice) [mg/dL]	Urinary Albumin (STZ diabetic mice) [µg/day]	Water intake (STZ diabetic mice) [mL]	IC50 [2] [µM]
c1ccc(N=Nc2ccccc2)cc1 [Azobenzene]	10 ± 1.1								13 ± 2.1
